# Columns and labels:
# [1] = Toxicokinetics after escalating intravenous doses of CKLP1 in beagles; format: in vivo, beagle dog; details: beagle, dog, in vivo, iv
# Experimental: Two beagles (one male and one female) were intravenously injected with escalating doses of CKPL1 (0.05 mg/kg, 0.5 mg/kg, 1.5 mg/kg, 3 mg/kg, and 5 mg/kg) to assess the toxicity of CKLP1. The injection was done through the cephalic vein and CKLP1 was administered in a phosphate buffered saline solution ((0.096% sodium phosphate dibasic, 0.089% sodium dihydrogen orthophosphate monohydrate, 0.83% sodium chloride) pH 6.5±0.1 in sterile water for injection USP). The dosing schedule is shown below in Table 3.
# The following parameters and endpoints were evaluated: mortality, clinical observations, body and organ weights, and food consumption. Bioanalytical samples for toxicokinetic parameters (for both CKLP1 and leveromakalim) were collected after each dose level (days 1, 3, 8, 10, and 14) at predose, 1, 3, 6, 8, and 24 hours postdose. Animals were released from the study after completion of the bioanalytical sample collection schedule.
# Toxicokinetics (TK) were determined based on the individual exposures for each animal on each sampled study day (days 1, 3, 8, 10, and 14). […] Predose samples had no quantifiable exposure in any animal on any day, with the exception of the female dog on day 10. The predose concentration for the female dog on day 10 was excluded from the TK analysis in order to allow for estimation of the IV C0.
# [2] = Plasma pharmacokinetics of CKLP1 and levcromakalim after topical dosing in hound dogs; format: in vivo, hound dog
# Experimental: To assess the pharmacokinetic parameters, hound dogs (n=3) were treated with 50 μL topical ocular administration of 10 mM CKLP1 or vehicle (PBS) (n=2) in both eyes, once daily for eight days. Blood (approximately 3 mL) was collected in heparin blood collection tubes at eight different time points (5 minutes, 15 minutes, 30 minutes, 60 minutes, 2 hours, 4 hours, 8 hours and 24 hours) following treatment on days 1, 4 and 8. Plasma was separated from the blood by centrifugation at 2000 rpm for 5 minutes.
# Immediately prior to analysis, tissues were thawed and their weight was measured. PBS was added at double the tissue volume homogenized in a rotor stator homogenizer for 30 seconds. […] Detection was accomplished using positive electrospray ionization with multiple-reaction monitoring (MRM). […] Data were acquired and analyzed using Waters MassLynx v4.1 software.
# [3] = hound, dog, plasma, topical or ocular, 10 mM CKLP1, 50 µL in each of both eyes, levcromakalim after topical 10 mM CKLP1 once daily, Day 1
# [4] = hound, dog, plasma, topical or ocular, 10 mM CKLP1, 50 µL in each of both eyes, levcromakalim after topical 10 mM CKLP1 once daily, Day 4
# [5] = hound, dog, plasma, topical or ocular, 10 mM CKLP1, 50 µL in each of both eyes, levcromakalim after topical 10 mM CKLP1 once daily, Day 8
# [6] = levcromakalim after topical 10 mM CKLP1 once daily, Day 1
# [7] = levcromakalim after topical 10 mM CKLP1 once daily, Day 4
# [8] = levcromakalim after topical 10 mM CKLP1 once daily, Day 8
compound,measurement,setting,value
"CC1(C)Oc2ccc(C#N)cc2[C@@H](N2CCCC2=O)[C@@H]1O [Levcromakalim, levcromakalim, reference compound]",AUC(0-t),"[1]; both sexes, 3 mg/kg, read-out: AUCTlast at MTD, sex-combined",431 ng·h/mL
same,Cmax,"[1]; both sexes, 3 mg/kg, read-out: Cmax at MTD, sex-combined",35.5 ng/mL
same,AUCTlast,"[1]; female, 0.5 mg/kg",81.3 ng·h/mL
same,T1/2,"[1]; female, 0.5 mg/kg",10.3 h
same,AUC(0-inf),"[1]; female, 1.5 mg/kg",272 ng·h/mL
same,AUCTlast,"[1]; female, 1.5 mg/kg",241 ng·h/mL
same,Cmax,"[1]; female, 1.5 mg/kg",15.6 ng/mL
same,T1/2,"[1]; female, 1.5 mg/kg",7.58 h
same,Tmax,"[1]; female, 1.5 mg/kg",3.00 h
same,AUC(0-inf),"[1]; female, 3 mg/kg",404 ng·h/mL
same,AUCTlast,"[1]; female, 3 mg/kg",386 ng·h/mL
same,Cmax,"[1]; female, 3 mg/kg",28.3 ng/mL
same,T1/2,"[1]; female, 3 mg/kg",5.07 h
same,Tmax,"[1]; female, 3 mg/kg",6.00 h
same,AUCTlast,"[1]; female, 5 mg/kg",1040 ng·h/mL
same,T1/2,"[1]; female, 5 mg/kg",7.82 h
same,AUCTlast,"[1]; male, 0.05 mg/kg",5.04 ng·h/mL
same,T1/2,"[1]; male, 0.05 mg/kg",9.66 h
same,AUCTlast,"[1]; male, 0.5 mg/kg",45.5 ng·h/mL
same,T1/2,"[1]; male, 0.5 mg/kg",6.89 h
same,AUC(0-inf),"[1]; male, 1.5 mg/kg",192 ng·h/mL
same,AUCTlast,"[1]; male, 1.5 mg/kg",183 ng·h/mL
same,Cmax,"[1]; male, 1.5 mg/kg",18.0 ng/mL
same,T1/2,"[1]; male, 1.5 mg/kg",5.27 h
same,Tmax,"[1]; male, 1.5 mg/kg",1.00 h
same,AUC(0-inf),"[1]; male, 3 mg/kg",518 ng·h/mL
same,AUCTlast,"[1]; male, 3 mg/kg",476 ng·h/mL
same,Cmax,"[1]; male, 3 mg/kg",42.7 ng/mL
same,T1/2,"[1]; male, 3 mg/kg",6.48 h
same,Tmax,"[1]; male, 3 mg/kg",1.00 h
same,AUCTlast,"[1]; male, 5 mg/kg",741 ng·h/mL
same,T1/2,"[1]; male, 5 mg/kg",7.67 h
same,Maximum concentration of levcromakalim in plasma,[2]; after topical 10 mM CKLP1,1.2 ± 0.2 ng/mL
same,concentration of levcromakalim found in plasma,[2]; after topical CKLP1,1 ng/mL
same,AUC,"[2]; hound, dog, plasma, topical or ocular, 10 mM",3.88 ng·h/mL
same,AUC(0-t),[2]; [3],5.09 ng·h/mL
same,Cmax,[2]; [3],1.3 ng/mL
same,Tmax,"[2]; hound, dog, plasma, topical or ocular, 10 mM CKLP1, 50 µL in each of both eyes, levcromakalim after topical 10 mM CKLP1 once daily, Day 1, read-out: Tmax (converted)",2 h
same,AUC(0-t),[2]; [4],6.3 ng·h/mL
same,Cmax,[2]; [4],1.4 ng/mL
same,Tmax,"[2]; hound, dog, plasma, topical or ocular, 10 mM CKLP1, 50 µL in each of both eyes, levcromakalim after topical 10 mM CKLP1 once daily, Day 4, read-out: Tmax (converted)",2 h
same,AUC(0-t),[2]; [5],2.67 ng·h/mL
same,Cmax,[2]; [5],1 ng/mL
same,Tmax,"[2]; hound, dog, plasma, topical or ocular, 10 mM CKLP1, 50 µL in each of both eyes, levcromakalim after topical 10 mM CKLP1 once daily, Day 8, read-out: Tmax (converted)",2 h
same,half-life,"[2]; hound, dog, plasma, topical or ocular, 10 mM, levcromakalim after topical 10 mM CKLP1 once daily, Day 1",1.24 h
same,half-life,"[2]; hound, dog, plasma, topical or ocular, 10 mM, levcromakalim after topical 10 mM CKLP1 once daily, Day 4",1.46 h
same,half-life,"[2]; hound, dog, plasma, topical or ocular, 10 mM, levcromakalim after topical 10 mM CKLP1 once daily, Day 8",2.11 h
same,Tmax,"[2]; hound, dog, plasma, topical or ocular, 10 mM, time of maximum concentration (Tmax) of levcromakalim, after topical 10 mM CKLP1",~2 h
same,half-life,"[2]; hound, dog, plasma, topical, 10 mM, as stated in the summary",2 h
same,Clast,[2]; [6],0.1 ng/mL
same,Tlast,[2]; [6],480 min
same,Clast,[2]; [7],0.1 ng/mL
same,Tlast,[2]; [7],480 min
same,Clast,[2]; [8],0.5 ng/mL
same,Tlast,[2]; [8],240 min

# Source: patent US20220387457A1 (Qlaris Bio, Inc., priority 2020, published 2022)
